Consider 26 molecules from patent US10385070B2, “Chroman-spirocyclic piperidine amides as modulators of ion channels” (VERTEX PHARMACEUTICALS INCORPORATED, priority 2011, dated 2019).

By IC50 is commonly meant the concentration that gives 50% inhibition.

Molecules are shown by their SMILES. Bounds are passed on as bounds.

Sequence of human NaV subtype, like NaV 1.7 (Q15858 whole entry): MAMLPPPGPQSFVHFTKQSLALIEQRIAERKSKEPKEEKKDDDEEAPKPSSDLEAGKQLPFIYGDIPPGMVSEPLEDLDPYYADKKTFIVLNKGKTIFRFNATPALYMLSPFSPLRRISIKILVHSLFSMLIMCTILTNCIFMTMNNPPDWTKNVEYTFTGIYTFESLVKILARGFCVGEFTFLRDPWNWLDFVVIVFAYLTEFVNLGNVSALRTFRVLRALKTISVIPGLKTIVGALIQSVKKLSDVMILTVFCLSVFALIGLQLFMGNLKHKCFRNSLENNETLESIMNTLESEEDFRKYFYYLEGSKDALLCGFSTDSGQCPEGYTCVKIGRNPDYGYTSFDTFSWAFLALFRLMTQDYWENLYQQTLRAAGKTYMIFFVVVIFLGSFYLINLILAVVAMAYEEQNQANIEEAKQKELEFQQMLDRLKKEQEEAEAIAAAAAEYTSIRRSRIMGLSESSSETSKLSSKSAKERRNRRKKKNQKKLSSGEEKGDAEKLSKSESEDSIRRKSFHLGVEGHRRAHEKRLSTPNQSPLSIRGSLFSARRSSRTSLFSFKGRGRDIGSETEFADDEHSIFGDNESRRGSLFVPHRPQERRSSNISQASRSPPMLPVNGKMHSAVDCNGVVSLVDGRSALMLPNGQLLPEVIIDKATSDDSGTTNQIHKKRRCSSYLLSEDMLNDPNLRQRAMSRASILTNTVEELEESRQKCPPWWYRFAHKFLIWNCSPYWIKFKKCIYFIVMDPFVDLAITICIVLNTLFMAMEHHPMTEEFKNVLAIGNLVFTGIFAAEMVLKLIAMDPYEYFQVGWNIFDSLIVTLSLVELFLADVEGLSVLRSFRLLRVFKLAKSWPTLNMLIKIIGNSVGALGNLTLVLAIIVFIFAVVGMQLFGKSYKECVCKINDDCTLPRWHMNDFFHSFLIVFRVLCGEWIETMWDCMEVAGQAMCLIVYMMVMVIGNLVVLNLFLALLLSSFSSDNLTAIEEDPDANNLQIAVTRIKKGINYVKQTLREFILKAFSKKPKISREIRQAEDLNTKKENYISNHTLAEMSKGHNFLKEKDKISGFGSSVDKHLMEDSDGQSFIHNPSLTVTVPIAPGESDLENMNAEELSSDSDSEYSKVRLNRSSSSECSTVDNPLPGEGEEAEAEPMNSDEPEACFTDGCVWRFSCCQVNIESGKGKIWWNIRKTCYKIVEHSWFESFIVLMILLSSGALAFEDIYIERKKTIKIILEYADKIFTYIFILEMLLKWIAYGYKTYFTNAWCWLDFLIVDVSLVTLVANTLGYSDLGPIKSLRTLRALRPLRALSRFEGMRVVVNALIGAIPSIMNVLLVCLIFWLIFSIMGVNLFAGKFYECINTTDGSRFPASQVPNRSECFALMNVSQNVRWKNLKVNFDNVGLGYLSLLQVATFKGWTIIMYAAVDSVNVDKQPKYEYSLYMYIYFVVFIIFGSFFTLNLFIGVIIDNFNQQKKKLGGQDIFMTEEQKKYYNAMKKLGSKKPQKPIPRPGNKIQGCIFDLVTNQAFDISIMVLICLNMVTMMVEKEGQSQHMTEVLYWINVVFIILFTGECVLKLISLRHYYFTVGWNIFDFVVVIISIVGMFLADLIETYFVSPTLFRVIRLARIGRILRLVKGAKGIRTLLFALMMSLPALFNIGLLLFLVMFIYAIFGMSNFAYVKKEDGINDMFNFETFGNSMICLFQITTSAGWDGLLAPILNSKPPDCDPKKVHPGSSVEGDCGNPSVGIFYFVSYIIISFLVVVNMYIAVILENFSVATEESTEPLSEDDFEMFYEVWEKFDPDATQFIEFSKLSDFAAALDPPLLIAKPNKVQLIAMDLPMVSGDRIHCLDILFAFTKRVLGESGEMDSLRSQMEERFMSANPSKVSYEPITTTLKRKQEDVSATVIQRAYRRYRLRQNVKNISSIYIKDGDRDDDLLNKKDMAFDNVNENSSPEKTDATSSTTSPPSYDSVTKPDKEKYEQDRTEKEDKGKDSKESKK

The target of the assay is human NaV subtype, like NaV 1.7 (Homo sapiens, UniProt Q15858). Description: E-VIPR optical membrane potential assay with electrical stimulation. The assay is classed as cell-based. The note with it: active against one or more sodium channels; assay and NaV subtype not specified for Table 3; read-out: IC50 Binned Activity Data. From the text:
Assays for Detecting and Measuring NaV Inhibition Properties of Compound E-VIPR Optical Membrane Potential Assay Method with Electrical Stimulation
Sodium channels are voltage-dependent proteins that can be activated by inducing membrane voltage changes by applying electric fields. The electrical stimulation instrument and methods of use are described in Ion Channel Assay Methods PCT/US01/21652, herein incorporated by reference and are referred to as E-VIPR. The instrument comprises a microtiter plate handler, an optical system for exciting the coumarin dye while simultaneously recording the coumarin and oxonol emissions, a waveform generator, a current- or voltage-controlled amplifier, and a device for inserting electrodes in well. Under integrated computer control, this instrument passes user-programmed electrical stimulus protocols to cells within the wells of the microtiter plate.
24 hours before the assay on E-VIPR, HEK cells expressing human NaV subtype, like NaV 1.7, are seeded in 384-well poly-lysine coated plates at 15,000-20,000 cells per well. Other subtypes are performed in an analogous mode in a cell line expressing the NaV of interest. HEK cells are grown in media (exact composition is specific to each cell type and NaV subtype) supplemented with 10% FBS (Fetal Bovine Serum, qualified; GibcoBRL #16140-071) and 1% Pen-Strep (Penicillin-Streptomycin; GibcoBRL #15140-122). Cells are grown in vented cap flasks, in 90% humidity and 10% CO2, to 100% confluence. They are usually split by trypsinization 1:10 or 1:20, depending on scheduling needs, and grown for 2-3 days before the next split.
100 mg/mL Pluronic F-127 (Sigma #P2443), in dry DMSO
Compound Plates: 384-well round bottom plate, e.g. Corning 384-well Polypropylene Round Bottom #3656
Cell Plates: 384-well tissue culture treated plate, e.g. Greiner #781091-1B
Bath1 buffer. Glucose 10 mM (1.8 g/L), Magnesium Chloride (Anhydrous), 1 mM (0.095 g/L), Calcium Chloride, 2 mM (0.222 g/L), HEPES 10 mM (2.38 g/L), Potassium Chloride, 4.5 mM (0.335 g/L), Sodium Chloride 160 mM (9.35 g/L).
Hexyl Dye Solution: Bath1 Buffer+0.5% β-cyclodextrin (make this prior to use, Sigma #C4767), 8 μM CC2-DMPE+2.5 μM DiSBAC6(3). To make the solution Add volume of 10% Pluronic F127 stock equal to volumes of CC2-DMPE+DiSBAC6(3). The order of preparation is first mix Pluronic and CC2-DMPE, then add DiSBAC6(3) while vortexing, then add Bath1+β-Cyclodextrin.
1) Pre-spot compounds (in neat DMSO) into compound plates. Vehicle control (neat DMSO), the positive control (20 mM DMSO stock tetracaine, 125 μM final in assay) and test compounds are added to each well at 160× desired final concentration in neat DMSO. Final compound plate volume will be 80 μL (80-fold intermediate dilution from 1 μL DMSO spot; 160-fold final dilution after transfer to cell plate). Final DMSO concentration for all wells in assay is 0.625%.
2) Prepare Hexyl Dye Solution.
3) Prepare cell plates. On the day of the assay, medium is aspirated and cells are washed three times with 100 μL of Bath1 Solution, maintaining 25 μL residual volume in each well.
4) Dispense 25 μL per well of Hexyl Dye Solution into cell plates. Incubate for 20-35 minutes at room temp or ambient conditions.
5) Dispense 80 μL per well of Bath1 into compound plates. Acid Yellow-17 (1 mM) is added and Potassium Chloride can be altered from 4.5 to 20 mM depending on the NaV subtype and assay sensitivity.
6) Wash cell plates three times with 100 μL per well of Bath1, leaving 25 μL of residual volume. Then transfer 25 uL per well from Compound Plates to Cell Plates. Incubate for 20-35 minutes at room temp/ambient condition
7) Read Plate on E-VIPR. Use the current-controlled amplifier to deliver stimulation wave pulses for typically 9 seconds and a scan rate of 400 Hz. A pre-stimulus recording is performed for 0.5 seconds to obtain the un-stimulated intensities baseline. […]
For `CC(C)O[C@@H]1CC2(CCN(C(=O)c3ccc([S+]([O-])C(C)C)cc3)CC2)Oc2ccc(F)cc21` (some centres unmarked) [Compound 161], the IC50 is not above 2000 nM. With `CC(C)Oc1ccc(C(=O)N2CCC3(CC2)C[C@@H](OC(C)C)c2cc(F)ccc2O3)cc1CN` [Compound 8], the IC50 is more than 5000 nM. As for `Cc1cc(C(=O)N2CCC3(CC2)C[C@@H](OC(C)C)c2ccccc2O3)ccc1OC(C)C` [Compound 72], the figure is not above 2000 nM; as for `COc1cc(C(=O)N2CCC3(CCc4ccccc4O3)CC2)ccc1OC(C)C` [Compound 162], 2000 to 5000 nM.

In the case of `Cc1cc(C(=O)N2CCC3(CC2)CC(OC(C)C)c2cccnc2O3)ccc1OC(C)C` (centres unmarked) [Compound 45], the IC50 was not above 2000 nM. As for `CC(C)O[C@@H]1CC2(CCN(C(=O)c3ccc(S(=O)(=O)C(C)C)c(C#N)c3)CC2)Oc2ccc(F)cc21` [Compound 22], the figure is not above 2000 nM. As for `COc1cc(C(=O)N2CCC3(CC2)C[C@@H](OC(C)C)c2cc(F)ccc2O3)ccc1C(C)(C)CO` [Compound 120], the IC50 is not above 2000 nM. As to `COc1cc(C(=O)N2CCC3(CC2)CC(OC(C)C)c2cccc(F)c2O3)ccc1OC(C)C` (centres unmarked) [Compound 177], the IC50 is not above 2000 nM.

For the molecule `COc1cc(C(=O)N2CCC3(CC2)CC(NC(C)C)c2ccccc2O3)ccc1OC(C)C` (centres unmarked) [Compound 47], the IC50 was more than 5000 nM. As for `COc1cc(C(=O)N2CCC3(CC2)C[C@@H](OC(C)C)c2cc(F)ccc2O3)ccc1OCCO` [Compound 117], the figure is not above 2000 nM. For the molecule `COc1cc(C(=O)N2CCC3(CC2)C[C@@H](OC(C)C)c2ccccc2O3)ccc1C(C)(C)CO` [Compound 160], the IC50 is not above 2000 nM. Consider `COc1cc(C(=O)N2CCC3(CC2)CC(OC2CC2)c2ccccc2O3)ccc1OC(C)C` (centres unmarked) [Compound 127], for which the IC50 is not above 2000 nM. As for `CCS(=O)(=O)c1ccc(C(=O)N2CCC3(CC2)C[C@@H](OC(C)C)c2cc(F)cc(F)c2O3)cc1C` [Compound 4], the IC50 was in the range of 2000 to 5000 nM.

With `COc1nc(C)ccc1C(=O)N1CCC2(CC1)C[C@@H](OC(C)C)c1ccccc1O2` [Compound 69], the IC50 is not above 2000 nM. As for `CC(C)O[C@@H]1CC2(CCN(C(=O)c3ccc(S(=O)(=O)C4CC4)cc3)CC2)Oc2ccc(F)cc21` [Compound 82], the figure is not above 2000 nM; as for `COc1cc(C(=O)N2CCC3(CC2)C[C@@H](OC(C)C)c2cc(F)ccc2O3)ccc1O[C@@H]1CCOC1` [Compound 155], not above 2000 nM; as for `COc1cc(C(=O)N2CCC3(CC2)Oc2ccccc2CC3OC(C)C)ccc1OC(C)C` (centres unmarked) [Compound 51], not above 2000 nM. As for `CC(C)Oc1ccc(C(=O)N2CCC3(CC2)CC(OC(C)C)c2ccccc2S3(=O)=O)cc1` (centres unmarked) [Compound 99], the IC50 is not above 2000 nM.

For `CC(C)OC1CC2(CCN(C(=O)c3ccc(S(=O)(=O)C(C)C)cc3)CC2)Oc2ccccc21` (centres unmarked) [Compound 119], the IC50 is not above 2000 nM. The same measure for `COc1cc(C(=O)N2CCC3(CC2)CC(OCCS(C)(=O)=O)c2ccccc2O3)ccc1OC(C)C` (centres unmarked) [Compound 86]: more than 5000 nM; for `COc1cc(C(=O)N2CCC3(CC2)CC(OC(C)C)c2nn(C(C)(C)C)cc2O3)ccc1OC(C)C` (centres unmarked) [Compound 34]: not above 2000 nM. In the case of `COc1cc(C(=O)N2CCC3(CC2)C[C@@H](OC(C)C)c2cc(F)ccc2O3)ccc1OC(F)F` [Compound 79], the IC50 was not above 2000 nM.

`CC(C)Oc1ccc(C(=O)N2CCC3(CC2)C[C@H](OC(C)C)c2ccccc2O3)cc1CO` [Compound 42]: the IC50 is not above 2000 nM. As for `CC(C)OCC1CC2(CCN(C(=O)c3ccc(OC(C)C)c(CO)c3)CC2)Oc2ccccc21` (centres unmarked) [Compound 108], the figure is not above 2000 nM; as for `Cc1cc(C(=O)N2CCC3(CC2)CC(OC(C)C)c2cc(C#N)ccc2O3)ccc1C(C)(C)O` (centres unmarked) [Compound 43], not above 2000 nM. As for `CC(C)O[C@@H]1CC2(CCN(C(=O)c3ccc(N(C)CCN(C)C)cn3)CC2)Oc2ccc(F)cc21` [Compound 97], the figure is more than 5000 nM.
